Experiments:
[1] = test system: diabetic rats; conditions: cited from earlier work
[2] = test system: diabetic retinopathy in rat model; conditions: rat model (Hammes 1991, 1994; Roufail 1998); cited from earlier work
[3] = test system: diabetic rats; conditions: diabetic rats (Kihara 1991, Miyauchi 1996, Yagihashi 1992); cited from earlier work
[4] = test system: old rats; conditions: aging rats (Li et al 1996); cited from earlier work
[5] = diabetes induced (Wolffenbuttel 1998); cited from earlier work
[6] = target: T1, AGE-BSA (Bos taurus, UniProt P02769); assay: In-vitro screening for AGE-breaking activity (AGE-BSA incubated with compound; ELISA / gel permeation chromatography); assay type: biochemical, bovine; conditions: 10 mM compound, 37° C., 24 hours
T1 construct: Bovine serum albumin (fraction V) (BSA); from tissue; host or cells: bovine serum (fraction V); own knowledge: fraction V is the albumin fraction of plasma/serum
T1 sequence (P02769 25-607): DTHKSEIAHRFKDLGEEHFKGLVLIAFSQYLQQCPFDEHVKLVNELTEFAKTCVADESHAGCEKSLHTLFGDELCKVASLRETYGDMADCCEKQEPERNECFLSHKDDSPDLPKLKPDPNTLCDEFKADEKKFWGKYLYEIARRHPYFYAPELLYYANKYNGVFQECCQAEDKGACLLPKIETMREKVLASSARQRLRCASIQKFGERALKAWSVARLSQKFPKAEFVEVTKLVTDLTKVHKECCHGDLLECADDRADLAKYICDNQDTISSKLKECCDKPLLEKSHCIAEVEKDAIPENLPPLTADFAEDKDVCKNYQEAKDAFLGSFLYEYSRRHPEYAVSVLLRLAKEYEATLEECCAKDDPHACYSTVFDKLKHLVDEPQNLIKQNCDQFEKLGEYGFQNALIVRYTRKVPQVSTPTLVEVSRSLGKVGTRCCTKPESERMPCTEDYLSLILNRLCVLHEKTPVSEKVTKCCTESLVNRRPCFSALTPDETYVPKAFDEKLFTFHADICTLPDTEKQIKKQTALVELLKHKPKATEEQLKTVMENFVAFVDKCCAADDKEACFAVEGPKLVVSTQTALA
Procedure: Fluorescence was used as the criteria to monitor the increased AGE formation.
160 mg/ml of protein, bovine serum albumin, BSA and 1.6M glucose sugar were dissolved in phosphate buffered saline, PBS. Sodium azide was added at 0.02% concentration as a preservative. The solution was filtered asceptically through a […] filter and kept for aging at 37° C. for 16 weeks. After 16 weeks the solution was dialyzed against PBS, aliquoted and stored at −20° C.
To determine the AGE breaking activity, 10 μg/ml of the 16 weeks AGE-BSA was incubated with different concentrations of the test compounds at 37° C. for 24 hours and AGE breaking activity of the test compounds by ELISA was determined.
• 1. Different concentrations of 16 weeks AGE-BSA were coated on a microtiter plate as standard. Each concentration is coated in triplicates. • 2. The test samples were coated on microtiter plate at a concentration of 5 ng. to 20 ng per well in triplicates. • 3. The plate was incubated at 37° C. for one hour. • 4. After incubation the plate was washed with PBST (PBS with 0.05% Tween 20). • 5. Blocking with 5% skimmed milk in PBS at 37° C. for one hour was done. • 6. The plate was washed with PBST. • 7. Primary antibody against AGE-BSA was added and the plate is incubated at 37° C. for one hour. • 8. The plate was washed with PBST. • 9. Secondary antibody anti rabbit HRPO (Horse-Radish Per Oxidase) conjugate was added and the plate is incubated at 37° C. for one hour. • 10. The plate was washed with PBST. • 11. Colour development with OPD (orthophenylenediamine dihydrochloride) and hydrogen peroxide was done. • 12. OD (optical density) at (450 nm reading –620 nm reading) was measured after incubation at 37° C. for 15 minutes with Microplate ELISA Reader.
The breaker activity of the compounds were determined by the following formula:
[formula] OD450-620Control=Absorbance of 20 ng AGE-BSA after incubation at 37° C. for 24 hours without test compound. OD450-620Test=Absorbance of 20 ng AGE-BSA after incubation at 37° C. for 24 hours with required concentration of test compound.
Gel Permeation Chromatography based method was used to determine AGE breaking activities of the compounds.
Separation by Gel Permeation Chromatography (GPC) depends on differences in the size, more precisely the hydrodynamic volume, of the proteins in a sample. […] The pores of a column particle are differentially accessible to smaller particles, depending on their size. This volume of the column is called (V1). The total accessible volume (Vt) is the sum of the volume outside the particles (V0) and the volume accessible inside the particles (V1): Vt=V0+Vi Therefore, in a typical Gel Permeation Chromatography (GPC) run, high molecular weight molecules elute at a lower retention time whereas lower molecular weight molecules are retained for longer time. For the purpose of quantification, the area under the curve for the respective molecule is recorded. The same principle has been applied in the in vitro screening of the molecules of instant invention. Highly cross-linked Advanced Glycosylated Endproducts (AGE) were prepared in vitro by incubating Bovine Serum Albumin (BSA) with glucose for a period of 16 weeks. […] The reduction in the area of AGE-BSA incubated in the presence of AGE breaker as compared to that of control AGE BSA (incubated in absence of AGE breaker) gives an estimate of the AGE breaker activity of the drug. In order to check the non-specific activity of the molecule, a similar experiment was repeated with BSA as well. Methodology:
A known concentration of 16-week AGE-BSA was incubated with and without a predetermined concentration of the drug at 37° C. for 24 hours in clean transparent glass test tubes. The solution without drug served as the control and the solution containing the drug was treated as the test sample.
Gel permeation chromatography was performed on equal volumes of control AGE-BSA preparation and solution of AGE-BSA treated with drug. […]

[7] = test system: Maillard reaction in-vitro (BSA, ribose); assay: Test for AGE inhibiting activity (Maillard reaction in-vitro, BSA + ribose, fluorescence); assay type: biochemical, bovine; conditions: 5 mM compound; 37° C., 7 days
Procedure: The following method was used to determine the inhibitory effect of the test compounds on Maillard reaction in-vitro. This method is adopted from U.S. Pat. No. 5,514,676 and European Patent No. 0 339 496 A2.
A solution of Bovine Serum Albumin (BSA), ribose and test compound was prepared in Phosphate Buffer Saline (PBS, pH 7.4) so as to have final concentration of BSA and ribose at 10 mg/ml and 500 mM respectively. Addition of compound was done in aseptic conditions. Sodium azide (0.02%) was also added in this solution in order to prevent microbial growth. A separate tube containing BSA, ribose and sodium azide in the same concentration and buffer as above, but without any test compound, was also incubated as positive control. After incubation at 37° C. for 7 days, 40 micro liter sample from each tube was removed and diluted with PBS to have final concentration of BSA at 1 mg/ml. The fluorescence of all the samples was measured at Excitation Maximum of […] and the Emission Maximum of […] using f-MAX Fluorimeter (Molecular Device, USA). In order to study the effect of test compound on fluorescence, freshly prepared compound solution was mixed with previously incubated positive control (i.e. BSA+ribose), so as to achieve same concentration of all the components as that of test samples.
The percent inhibition of test compound was measured as follows:
[formula] Where F3=Fluorescence of BSA+ribose+compound, F4 is fluorescence of incubated (BSA+ribose)+freshly added test compound.

[8] = Free radical scavenging activity on ABTS radical cation; assay type: biochemical
[9] = test system: AGE derived protein cross links; conditions: Vasan et al. Nature 1996; U.S. Pat. No. 5,853,703; cited from earlier work

Compound | % Breakage [6] | % Inhibition (Day 7) [7] | Relative Free Radical Scavenging Activity (%) on ABTS ([8]; 12.5 μM) | Relative Free Radical Scavenging Activity (%) on ABTS ([8]; 25.0 μM) | Relative Free Radical Scavenging Activity (%) on ABTS ([8]; 50.0 μM) | Relative Free Radical Scavenging Activity (%) on ABTS ([8]; 100.0 μM) | also measured
N=C(N)NN [aminoguanidine] | – | – | – | – | – | – | development of diabetic nephropathy ([1]; Yamauchi (1997)): inhibits development of diabetic nephropathy; thickening of glomerular basement membrane ([1]; diabetic rats (Ellis 1991)): ameliorate thickening of glomerular basement membrane; rise in albuminuria ([1]; experimental diabetic rats (Soulis-Liparota, 1991)): attenuate the rise in albuminuria; progression of diabetic retinopathy [2]: retard progression of diabetic retinopathy; nerve conduction velocity [3]: improve nerve conduction velocity; tissue damage [4]: significantly prevent tissue damage
Cc1sc[n+](CC(=O)c2ccccc2)c1C.[Cl-] [ALT-711] | – | – | – | – | – | – | arterial stiffness and arterial compliance [5]: reverse diabetes induced increase of arterial stiffness and improve arterial compliance
O=C(C[n+]1cccc(-c2cc(COc3ccccc3)n[nH]2)c1)c1cccs1.[Cl-] [Compound 24, 1-(2-Thien-2′-yl-2-oxoethyl)-3-[(3-phenoxymethyl)pyrazol-5-yl]pyridinium chloride] | 97.72% | 82.5% | 43.66% | 74.64% | 83.24% | 90.12% | –
O=C(C[n+]1cccc(-c2cc(Cc3ccccc3)nn2-c2ccccc2)c1)c1ccccc1.[Cl-] [Compound 19, 1-(2-Phenyl-2-oxoethyl)-3-[(1-phenyl-3-phenylmethyl)pyrazol-5-yl]pyridinium chloride] | 91.22% | 64.23% | 8.37% | 19.42% | 37.62% | 55.18% | –
O=C(C[n+]1ccsc1)c1ccccc1.[Br-] [N-phenacyl thiazolium bromide] | – | – | – | – | – | – | cleavage of AGE derived protein cross links [9]: cleaves covalent, AGE derived protein cross links
